Test results published in patent US8452543B2, “High throughput screening for antimicrobial dosing regimens” (priority 2005, dated 2013).
Several values for one entry are separate records, joined by “and”; a condition that tells them apart may be missing. Equal entries are not always repeated.

How the values were obtained:
P. aeruginosa ATCC 27853 [1] = assay: MIC/MBC, modified macrobroth dilution; format: cell-based, Pseudomonas aeruginosa; details: P. aeruginosa isolate (PA 27853)
Description: The final concentration of bacteria in each macrobroth dilution tube was approximately 5×10^5 cfu/ml of Ca-MHB. Serial twofold dilutions of meropenem were used. […] Samples (50 μl) from clear tubes and the cloudy tube with the highest drug concentration were plated on Mueller-Hinton agar (MHA) plates (Hardy Diagnostics, Santa Maria, Calif.). […] Drug carry-over effect was assessed by visual inspection of the distribution of colonies on media plates. The studies were conducted in duplicate and repeated at least once on a separate day.

[2] = system: S. aureus ATCC 29213 and clinical isolates 55, 60, 25, 62; assay: MIC/MBC of S. aureus isolates to gentamicin; format: cell-based, Staphylococcus aureus
Description: Minimum inhibitory concentration (MIC)/minimum bactericidal concentration (MBC) were determined in Ca-MHB using a modified macrobroth dilution method as described by the CLSI (10). The final concentration of bacteria in each macrobroth dilution tube was approximately 5×10^5 cfu/ml of Ca-MHB. […] Samples (50 μl) from clear tubes and the cloudy tube with the highest drug concentration were plated on Mueller-Hinton agar (MHA) plates (Hardy Diagnostics, Santa Maria, Calif.). […] Drug carry-over effect was assessed by visual inspection of the distribution of colonies on media plates. The studies were conducted in duplicate and repeated at least once on a separate day. […]

[3] = system: S. aureus ATCC 29213 and clinical isolates 55, 60, 25, 62; assay: Time-kill studies and pharmacodynamic modeling, gentamicin; format: cell-based, Staphylococcus aureus
Description: Time-kill studies were conducted with different and escalating meropenem concentrations. […] An overnight culture of the isolate was diluted 30-fold with pre-warmed Ca-MHB and incubated further at 35 8 C until reaching late log phase growth. The bacterial suspension was diluted with Ca-MHB accordingly based on absorbance at 630 nm; 15 mL of the suspension was transferred to 50 mL sterile conical flasks each containing 1 mL of an antimicrobial agent solution at 16 the target concentration. The final concentration of the bacterial suspension in each flask was 1×10^8 cfu/mL. The high inoculum used was to simulate the bacterial load in severe infection, and to allow resistant sub-population(s) to be present at baseline. The experiment was conducted for 24 h in a shaker water bath set at 35 8 C. Serial samples in duplicate were obtained from each flask over 24 h, at 0 (baseline), 2, 4, 8, 12, and 24 h, to characterize the effect of various meropenem concentrations on the total bacterial population. Prior to culturing the bacteria quantitatively, the bacterial samples (0.5 mL) were centrifuged at 10000 g for 15 min, and reconstituted with sterile normal saline to their original volumes in order to minimize drug carry-over effect. Total bacterial populations were quantified by spiral plating 10 serial dilutions of the samples ([…]) onto MHA plates. The media plates were incubated in a humidified incubator (35 8 C) for 18-24 h, and the bacterial density from each sample was determined by CASBA-4 colony scanner/software (Spiral Biotech, Bethesda, Md., USA).
In contrast to the conventional approach in which the final observed effects are modelled, information over time was utilized to develop a dynamic model system that would capture bacterial growth/killing rates. The starting point was a mathematical model describing the time course of bacterial burden [biological response, N(t)] under the influence of various antimicrobial agent concentrations C(t). The rate of change of bacteria over time was expressed as the difference between the intrinsic bacterial growth rate and the kill rate provided by the antimicrobial agent (Eq. 35). Based on previous studies, a linear bacterial growth rate was adopted. Additional model parameters were used to account for other physiological phenomena such as contact inhibition (using a maximum population size) and non-linear (sigmoidal) kill rate to account for target site saturation. Regrowth was attributed to adaptation, which was explicitly modelled as increase in the concentration necessary to achieve 50% maximal kill rate (C50k), using a saturable function of antimicrobial agent selective pressure (both meropenem concentration and time) (Eq. 36).
Time-kill modeling was performed for S. Aureus and gentamicin as for P. aeruginosa according to procedures and dynamic growth modeling in Examples 2-3.

S. aureus ATCC 29213 = assay: Hollow-fiber infection model, gentamicin; format: cell-based, Staphylococcus aureus
Description: The computer simulations were compared to experimental data from an in-vitro hollow fiber infection model with similar antimicrobial agent exposures (20). Basically the drug was injected directly into the central reservoir to achieve the peak concentration desired. Fresh (drug-free) growth medium (Ca-MHB) was continuously infused from the diluent reservoir into the central reservoir to dilute the drug in order to simulate drug elimination in humans. […] Bacteria were inoculated into the extracapillary compartment of the hollow-fiber cartridge (Fibercell Systems, Inc., Frederick, Md.); they are confined in the extracapillary compartment, but are exposed to the fluctuating drug concentration in the central reservoir by means of an internal circulatory pump in the bioreactor loop. The optional absorption compartment of the system was not used.

P. aeruginosa ATCC 27853 [4] = assay: Time-kill studies and best-fit model, gentamicin; format: cell-based, Pseudomonas aeruginosa; details: PA 27853
Description: A clinical relevant concentration range of gentamicin (from 0-32 mg/l) was used. […] The data were used as inputs to derive the best-fit model parameter estimates, as previously described (24, 17). The baseline inoculum (10^7 CFU/ml) was deemed to be dense enough to constitute a heterogeneous bacterial population. […] In Table 5: PA—P. aeruginosa, AB—A. baumannii, Kg—growth rate constant for bacterial population, Nmax—maximum population size, Kk—maximal kill rate constant for bacterial population, C50k—concentration to achieve 50% of maximal kill rate for bacterial population, H—sigmoidicity constant for bacterial population, β—maximal adaptation, and τ—rate of adaptation factor.

P. aeruginosa ATCC 27853 [5] = assay: Hollow fiber infection model, gentamicin; format: cell-based, Pseudomonas aeruginosa; details: Cmax/MIC of 30 every 12 h
Description: The media plates were incubated at 35° C. for up to 24 (total population) and 72 hours (sub-populations with reduced susceptibility), then bacterial density from each sample was enumerated visually. The theoretical lower limit of detection was 400 CFU/ml.

[6] = system: amikacin resistant A. baumannii isolates; assay: Resistance confirmation, repeat susceptibility testing, amikacin; format: cell-based, Acinetobacter baumannii; details: amikacin resistant isolates
[7] = system: gentamicin resistant P. aeruginosa isolates; details: after serial passage on drug-free plates and storage at −70° C.

gentamicin
MBC (P. aeruginosa ATCC 27853 [1]): 2 mg/l and 2/2 mg/l | MIC (P. aeruginosa ATCC 27853 [1]): 2 mg/l and 2/2 mg/l | MBC ([2]; S. aureus strain 25): 2 μ/mL | MIC ([2]; S. aureus strain 25): 1 μ/mL | MBC ([2]; S. aureus strain 55): 2 μ/mL | MIC ([2]; S. aureus strain 55): 0.5 μ/mL | MBC ([2]; S. aureus strain 60): 2 μ/mL | MIC ([2]; S. aureus strain 60): 1 μ/mL | MBC ([2]; S. aureus strain 62): 1/1 μ/mL | MIC ([2]; S. aureus strain 62): 1/1 μ/mL | MBC ([2]; S. aureus strain ATCC 29213): 2 μ/mL | MIC ([2]; S. aureus strain ATCC 29213): 1 μ/mL | C50K ([3]; S. aureus strain 25): 3.18 mg/L | H ([3]; S. aureus strain 25): 1.27 | β ([3]; S. aureus strain 25): 9,952 | τ ([3]; S. aureus strain 25): 0.33 µL/min/mg | C50K ([3]; S. aureus strain 55): 2.58 mg/L | H ([3]; S. aureus strain 55): 1.07 | β ([3]; S. aureus strain 55): 166.5 | τ ([3]; S. aureus strain 55): 29.7 µL/min/mg | C50K ([3]; S. aureus strain 60): 1.05 mg/L | H ([3]; S. aureus strain 60): 1.52 | β ([3]; S. aureus strain 60): 427.9 | τ ([3]; S. aureus strain 60): 46.2 µL/min/mg | C50K ([3]; S. aureus strain 62): 0.65 mg/L | H ([3]; S. aureus strain 62): 1.61 | β ([3]; S. aureus strain 62): 336.2 | τ ([3]; S. aureus strain 62): 119 µL/min/mg | C50K ([3]; S. aureus strain ATCC 29213): 5.14 mg/L | H ([3]; S. aureus strain ATCC 29213): 0.75 | β ([3]; S. aureus strain ATCC 29213): 14,620 | τ ([3]; S. aureus strain ATCC 29213): 1.83 µL/min/mg | concentrations beyond which the rate of killing seemed to plateau ([3]; all five S. aureus isolates): 4 to 8 times the MIC | bactericidal activity ([3]; gentamicin concentration increased from 0.5 to 4 times the MIC): concentration dependent | microbiologic response with repeated dosing (S. aureus ATCC 29213; 3-times-daily dosing regimen): sustained bacterial suppression over 5 days | killing at 24 h (S. aureus ATCC 29213; both dosing regimens (once daily and 3 times daily, identical daily doses)): approximately 5 log | microbiologic response with repeated dosing (S. aureus ATCC 29213; once-daily dosing regimen, over the next 4 days): regrowth was apparent | C50k (P. aeruginosa ATCC 27853 [4]): 0.72 mg/L | H (P. aeruginosa ATCC 27853 [4]): 3.73 | Kk (P. aeruginosa ATCC 27853 [4]): 4.68 h⁻¹ | β (P. aeruginosa ATCC 27853 [4]): 42.54 | τ (P. aeruginosa ATCC 27853 [4]): 225 µL/min/mg | microbial response (P. aeruginosa ATCC 27853 [5]): Sustained suppression of resistance emergence was achieved | cross-resistance [6]: observed | stability of resistance [7]: not stable
